In patent publication US12295396B2, “Antagonists of T2R54 and compositions and uses thereof” (Firmenich Incorporated, priority 2018, dated 2025):

Molecular target: T1, hT2R54 (Homo sapiens, UniProt P59534)
T1 construct: expressed in transfected cells; it overexpresses a promiscuous G protein
T1 sequence (P59534 1-338): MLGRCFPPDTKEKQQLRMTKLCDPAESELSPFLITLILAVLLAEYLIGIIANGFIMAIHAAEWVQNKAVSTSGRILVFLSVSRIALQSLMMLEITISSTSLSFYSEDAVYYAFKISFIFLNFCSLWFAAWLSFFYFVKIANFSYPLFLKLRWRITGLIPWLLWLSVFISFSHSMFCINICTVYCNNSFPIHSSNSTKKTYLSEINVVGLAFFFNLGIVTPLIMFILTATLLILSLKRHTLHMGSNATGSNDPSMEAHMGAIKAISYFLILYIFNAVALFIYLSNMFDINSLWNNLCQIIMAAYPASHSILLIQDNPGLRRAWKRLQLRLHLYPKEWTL
Experiment: Cell-based assay for measuring hT2R54 inhibition (FLIPR calcium, Fluo4AM, acetaminophen as bitter agonist)
Conditions: Table 2; cells stably expressing hT2R54 and a promiscuous G protein; read-out: hT2R54 IC50
Method in brief: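 Cells stably co-expressing hT2R54 and a promiscuous G protein were loaded with Fluo4AM and given acetaminophen dose series, alone or with fixed concentrations of test compound. On FLIPR, baseline was recorded for 10 s and fluorescence for 3 min after addition. IC50 is the concentration halving the acetaminophen-alone response.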

IC50	SMILES
90 nM	CC(=O)c1cc2c(cc1NC(=O)CN1CCN(C(=O)c3n[nH]cc3C)CC1)OCO2 [compound 307]
9 nM	CC(=O)c1cc2c(cc1NC(=O)CN1CCN(C(=O)c3nc(C)c[nH]3)CC1)OCO2 [compound 308]
200 nM	CC(=O)c1cc2c(cc1NC(=O)CN1CCN(C(=O)c3c[nH]c(C)n3)CC1)OCO2 [compound 309]
800 nM	CC(=O)c1cc2c(cc1NC(=O)CN1CCN(C(=S)Nc3ccccc3)CC1)OCO2 [compound 310]
82 nM	COCC(=O)N1CCN(CC(=O)Nc2cc3c(cc2C(=O)OC)OCO3)CC1 [compound 311]
157 nM	COCCC(=O)N1CCN(CC(=O)Nc2cc3c(cc2C(=O)OC)OCO3)CC1 [compound 312]
60 nM	CC(=O)c1cc2c(cc1NC(=O)CN1CCN(C(=O)[C@H]3CCC(=O)O3)CC1)OCO2 [compound 313]
60 nM	CC(=O)c1cc2c(cc1NC(=O)CN1CCN(C(=O)[C@@H]3CCCO3)CC1)OCO2 [compound 314]
130 nM	CC(=O)c1cc2c(cc1NC(=O)CN1CCN(C(=O)[C@H]3CCCO3)CC1)OCO2 [compound 315]
80 nM	CC(=O)c1cc2c(cc1NC(=O)C(C)N1CCN(C(=O)[C@@H]3CCCO3)CC1)OCO2 (stereo partly shown) [compound 316]
200 nM	CC(=O)c1cc2c(cc1NC(=O)C(C)N1CCN(C(=O)[C@H]3CCCO3)CC1)OCO2 (stereo partly shown) [compound 317]
60 nM	CC(=O)c1cc2c(cc1NC(=O)C(C)N1CCN(C(=O)C3CCCO3)CC1)OCO2 (stereo not shown) [compound 318]
1000 nM	CC(=O)c1cc2c(cc1NC(=O)C(C)(C)N1CCN(C(=O)C3CCCO3)CC1)OCO2 (stereo not shown) [compound 319]
1600 nM	COCC(C(=O)Nc1cc2c(cc1C(C)=O)OCO2)N1CCN(C(=O)[C@H]2CCCO2)CC1 (stereo partly shown) [compound 320]
1000 nM	CC(=O)c1cc2c(cc1NC(=O)CN1CCN(C(=O)C3CCN(C)C3)CC1)OCO2 (stereo not shown) [compound 321]
70 nM	CC(=O)c1cc2c(cc1NC(=O)CN1CCN(C(=O)CC3CCCO3)CC1)OCO2 (stereo not shown) [compound 322]
200 nM	CC(=O)c1cc2c(cc1NC(=O)CN1CCN(C(=O)CC3CCOC3)CC1)OCO2 (stereo not shown) [compound 323]
45 nM	COCc1ccc(C(=O)N2CCN(CC(=O)Nc3cc4c(cc3C(C)=O)OCCO4)CC2)cc1 [compound 325]
40 nM	CC(=O)c1cc2c(cc1NC(=O)CN1CCN(C(=O)c3cccnc3)CC1)OCCO2 [compound 326]
70 nM	CC(=O)c1cc2c(cc1NC(=O)CN1CCN(C(=O)c3ccncc3)CC1)OCCO2 [compound 327]
60 nM	CC(=O)c1cc2c(cc1NC(=O)CN1CCN(C(=O)c3ncn[nH]3)CC1)OCCO2 [compound 328]
50 nM	CC(=O)c1cc2c(cc1NC(=O)CN1CCN(C(=O)c3cnn[nH]3)CC1)OCCO2 [compound 329]

IC50	SMILES
90 nM	CC(=O)c1cc2c(cc1NC(=O)CN1CCN(C(=O)c3ccn[nH]3)CC1)OCCO2 [compound 330]
200 nM	CC(=O)c1cc2c(cc1NC(=O)CN1CCN(C(=O)c3c[nH]c(C)n3)CC1)OCCO2 [compound 331]
200 nM	CC(=O)c1cc2c(cc1NC(=O)CN1CCN(C(=O)c3nc(C)c[nH]3)CC1)OCCO2 [compound 332]
80 nM	CC(=O)c1cc2c(cc1NC(=O)CN1CCN(C(=O)c3ccc(C)o3)CC1)OCCO2 [compound 333]
50 nM	CC(=O)c1cc2c(cc1NC(=O)CN1CCN(C(=O)[C@H]3CCC(=O)O3)CC1)OCCO2 [compound 335]
50 nM	CC(=O)c1cc2c(cc1NC(=O)CN1CCN(C(C)=O)CC1)OCCO2 [compound 336]
60 nM	CC(=O)c1cc2c(cc1NC(=O)C(C)N1CCN(C(C)=O)CC1)OCCO2 (stereo not shown) [compound 337]
60 nM	COCC(=O)N1CCN(CC(=O)Nc2cc3c(cc2C(C)=O)OCCO3)CC1 [compound 338]
80 nM	COCCOCC(=O)N1CCN(CC(=O)Nc2cc3c(cc2C(C)=O)OCCO3)CC1 [compound 339]
90 nM	CC(=O)c1cc2c(cc1NC(=O)CN1CCN(C(=O)C3CCCO3)CC1)OCCO2 (stereo not shown) [compound 340]
1800 nM	CC(=O)c1cc2c(cc1NC(=O)CN1CCN(C(=O)[C@@H]3CCCO3)CC1)OCCO2 [compound 341]
70 nM	CC(=O)c1cc2c(cc1NC(=O)CN1CCN(C(=O)[C@H]3CCCO3)CC1)OCCO2 [compound 342]
30 nM	CC(=O)c1cc2c(cc1NC(=O)CN1CCN(C(=O)C3CCCCO3)CC1)OCCO2 (stereo not shown) [compound 343]
50 nM	CC(=O)c1cc2c(cc1NC(=O)CN1CCN(C(=O)CC3CCOC3)CC1)OCCO2 (stereo not shown) [compound 344]
> 10000 nM	CC(=O)c1cc2c(cc1NC(=O)CN1CCN(C(=O)CN3CCCC3)CC1)OCCO2 [compound 345]
23 nM	COC(=O)c1cc2c(cc1NC(=O)CN1CCN(C(=O)c3cn(C)nn3)CC1)OCO2 [compound 346]
83 nM	COCc1ccc(C(=O)N2CCN(CC(=O)Nc3cc4c(cc3C(=O)OC)OCO4)CC2)o1 [compound 347]
166 nM	COC(=O)c1cc2c(cc1NC(=O)CN1CCN(C(C)=O)CC1)OCO2 [compound 348]
244 nM	CCCC(=O)N1CCN(CC(=O)Nc2cc3c(cc2C(=O)OC)OCO3)CC1 [compound 349]
299 nM	COC(=O)c1cc2c(cc1NC(=O)CN1CCN(C(=O)C3CCCO3)CC1)OCO2 (stereo not shown) [compound 350]
439 nM	COC(=O)c1cc2c(cc1NC(=O)CN1CCN(C(=O)CC3CCCO3)CC1)OCO2 (stereo not shown) [compound 351]
740 nM	COC(=O)c1cc2c(cc1NC(=O)CN1CCN(C(=O)CN3CCOCC3)CC1)OCO2 [compound 352]

IC50	SMILES
2100 nM	COC(=O)c1cc2c(cc1NC(=O)CN1CCN(C(C)=O)CC1)CCCC2 [compound 353]
1900 nM	COc1cc2c(cc1NC(=O)CN1CCN(C(=O)C3CCCO3)CC1)CCC2 (stereo not shown) [compound 354]
2500 nM	COc1cc2c(cc1NC(=O)CN1CCN(C(C)=O)CC1)CCC2 [compound 355]
156 nM	COCc1cccc(C(=O)N2CCN(CC(=O)Nc3cc4c(cc3OC)OCO4)CC2)c1 [compound 356]
208 nM	COCc1ccc(C(=O)N2CCN(CC(=O)Nc3cc4c(cc3OC)OCO4)CC2)s1 [compound 357]
148 nM	COCc1ccc(C(=O)N2CCN(CC(=O)Nc3cc4c(cc3OC)OCO4)CC2)cc1 [compound 358]
261 nM	COCc1nc(C(=O)N2CCN(CC(=O)Nc3cc4c(cc3OC)OCO4)CC2)cs1 [compound 359]
735 nM	COc1cc2c(cc1NC(=O)CN1CCN(C(=O)c3cn(C)nn3)CC1)OCO2 [compound 360]
546 nM	COCc1nc(C(=O)N2CCN(CC(=O)Nc3cc4c(cc3OC)OCO4)CC2)co1 [compound 361]
567 nM	COc1cc2c(cc1NC(=O)CN1CCN(C(=O)c3ncoc3C)CC1)OCO2 [compound 362]
600 nM	COc1cc2c(cc1NC(=O)CN1CCN(C(=O)c3cn(C)nc3C)CC1)OCO2 [compound 363]
1560 nM	COc1cc2c(cc1NC(=O)CN1CCN(C(C)=O)CC1)OCO2 [compound 364]
2640 nM	COc1cc2c(cc1NC(=O)CN1CCN(C(=O)CN3CCOCC3)CC1)OCO2 [compound 365]
600 nM	COc1cc2c(cc1NC(=O)CN1CCN(C(=O)c3cccc(F)c3)CC1)OCO2 [compound 367]
600 nM	COc1ccc(C(=O)N2CCN(CC(=O)Nc3cc4c(cc3OC)OCO4)CC2)cc1 [compound 368]
300 nM	COc1cccc(C(=O)N2CCN(CC(=O)Nc3cc4c(cc3OC)OCO4)CC2)c1 [compound 369]
400 nM	COc1cc2c(cc1NC(=O)CN1CCN(C(=O)c3ccccc3)CC1)OCO2 [compound 379]
800 nM	COc1cc2c(cc1NC(=O)CN1CCN(C(=O)c3ccc(O)cc3)CC1)OCO2 [compound 380]
5000 nM	COc1cc2c(cc1NC(=O)CN1CCN(C(=O)c3ccc(O)c(O)c3)CC1)OCO2 [compound 381]
400 nM	COc1cc2c(cc1NC(=O)CN1CCN(C(=O)c3cccc(C#N)c3)CC1)OCO2 [compound 382]
600 nM	COc1cc2c(cc1NC(=O)CN1CCN(C(=O)c3cccc(CO)c3)CC1)OCO2 [compound 383]

SMILES	IC50
CC(=O)c1cc2c(cc1NC(=O)CN1CCN(C(=O)Cc3ccoc3)CC1)OCO2 [compound 324]	80 nM
CC(=O)c1cc2c(cc1NC(=O)CN1CCN(C(=O)Cc3ccco3)CC1)OCCO2 [compound 334]	50 nM
COc1cc2c(cc1NC(=O)CN1CCN(C(=O)Cc3ccccc3)CC1)OCO2 [compound 370]	400 nM
COc1cc2c(cc1NC(=O)CN1CCN(C(=O)Cc3ccc(F)cc3)CC1)OCO2 [compound 371]	900 nM
COc1cc2c(cc1NC(=O)CN1CCN(C(=O)Cc3cccc(O)c3)CC1)OCO2 [compound 372]	400 nM
COc1cc2c(cc1NC(=O)CN1CCN(C(=O)Cc3ccc(O)cc3)CC1)OCO2 [compound 373]	700 nM
COc1cccc(CC(=O)N2CCN(CC(=O)Nc3cc4c(cc3OC)OCO4)CC2)c1 [compound 374]	300 nM
COc1ccc(CC(=O)N2CCN(CC(=O)Nc3cc4c(cc3OC)OCO4)CC2)cc1 [compound 375]	1000 nM
COc1cc2c(cc1NC(=O)CN1CCN(C(=O)Cc3ccccc3F)CC1)OCO2 [compound 376]	200 nM
COc1cc2c(cc1NC(=O)CN1CCN(C(=O)Cc3cccc(F)c3)CC1)OCO2 [compound 377]	200 nM
COc1cc2c(cc1NC(=O)CN1CCN(C(=O)Cc3ccncc3)CC1)OCO2 [compound 378]	1100 nM
